pEC50: −log10 of the molar value.

Drawing on ChEMBL document CHEMBL3872270, “Intelligent substance delivery into cells using cell-penetrating peptides” (Bioorg Med Chem Lett, 2017), this text covers EC50 for one compound.

This assay in a line: Cytotoxicity against human paclitaxel-resistant OVCA429 cells assessed as cell viability preincubated for 20 mins followed by wash and incubation in drug-free media for 72 hrs by MTT assay. It counts as functional, cell-based. On the technique in general: Formazan colour is commonly taken as a measure of viable cells.

As usually defined, the pEC50 is −log10 of the EC50, conventionally taken in molar units. `CC(=O)O[C@H]1C(=O)[C@@]2(C)[C@H]([C@H](OC(=O)c3ccccc3)[C@]3(O)C[C@H](OC(=O)[C@H](OC(=O)CCCSSCCCCCCOP(=O)(OCCCCCCNC(=N)N)OCCOP(=O)(OCCCCCCNC(=N)N)OCCOP(=O)(OCCCCCCNC(=N)N)OCCOP(=O)(OCCCCCCNC(=N)N)OCCOP(=O)(OCCCCCCNC(=N)N)OCCOP(=O)(OCCCCCCNC(=N)N)OCCOP(=O)(OCCCCCCNC(=N)N)OCCOP(=O)(OCCO)OCCCCCCNC(=N)N)[C@@H](NC(=O)c4ccccc4)c4ccccc4)C(C)=C1C3(C)C)[C@]1(OC(C)=O)CO[C@@H]1C[C@@H]2O` (stereo partly specified): the pEC50 was 5.85.
